Data on 13 molecules can be found in ChEMBL document CHEMBL1128013, “The synthesis and biological activity of tetrahydroquinoline angiotensin II antagonists containing a substituted biphenyltetrazole group” (Bioorg Med Chem Lett, 1994).

pIC50: −log10 of the molar value.

For assay [1], the system named is Rattus norvegicus. The experiment in a line: Tested in vivo for inhibition of pressor response induced by infusion of AII in conscious normotensive rats, when given intravenously. The format is functional, organism-based.
In assay [2] the target is T1, Type-1 angiotensin II receptor (Cavia porcellus, UniProt Q9WV26).
T1 sequence (Q9WV26 whole entry): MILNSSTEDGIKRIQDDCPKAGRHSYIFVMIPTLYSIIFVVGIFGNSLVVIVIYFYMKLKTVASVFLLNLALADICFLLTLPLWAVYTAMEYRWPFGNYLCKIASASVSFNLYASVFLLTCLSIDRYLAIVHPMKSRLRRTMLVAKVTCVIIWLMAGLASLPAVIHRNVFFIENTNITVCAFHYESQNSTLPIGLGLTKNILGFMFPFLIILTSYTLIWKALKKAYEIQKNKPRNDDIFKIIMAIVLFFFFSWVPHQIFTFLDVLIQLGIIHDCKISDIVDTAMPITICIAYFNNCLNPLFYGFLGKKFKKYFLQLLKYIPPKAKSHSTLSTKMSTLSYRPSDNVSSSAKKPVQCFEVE
Description: Compound was tested for in vitro inhibition of specific binding of [I-125]AII to AT1 receptor in guinea pig adrenal membrane preparation. The format is cell membranes.

The target of assay [3] is T1, Type-1 angiotensin II receptor. The experiment in a line: Compound was tested for in vitro inhibition of specific binding of [I-125]AII to Angiotensin II receptor, type 1 in guinea pig adrenal membrane preparation. The format is cell membranes.

Consider `CCCCc1nc(Cl)c(CO)n1Cc1ccc(-c2ccccc2-c2nnn[nH]2)cc1` [LOSARTAN], for which, in assay [1], the EC50 came to 0.65 mg/kg.
The molecule `CCc1cc(OCc2ccc(-c3ccccc3-c3nn[nH]n3)c(Cl)c2)c2c(n1)CCCC2` showed a pIC50 in assay [2] of 8.15. The same molecule yielded an EC50 in assay [1] of 0.52 mg/kg.
Regarding `CCc1cc(OCc2ccc(-c3ccc(OC)cc3-c3nnn[nH]3)cc2)c2c(n1)CCCC2`, in assay [3], the pIC50 is 6.85.
`CCc1cc(OCc2ccc(-c3ccccc3-c3nn[nH]n3)c(OC)c2)c2c(n1)CCCC2` had a pIC50 in assay [2] of 8.10. Also, the EC50 in assay [1] was 0.39 mg/kg.
`CCc1cc(OCc2ccc(-c3ccccc3-c3nn[nH]n3)c(C(C)=O)c2)c2c(n1)CCCC2` showed a pIC50 in assay [2] of 8.22. In assay [1], this molecule came in with an EC50 of 0.1 mg/kg.
`CCc1cc(OCc2ccc(-c3ccc(C)cc3-c3nn[nH]n3)cc2)c2c(n1)CCCC2` showed a pIC50 in assay [3] of 7.27.
In assay [3], `CCc1cc(OCc2ccc(-c3c(C)cccc3-c3nn[nH]n3)cc2)c2c(n1)CCCC2` showed a negative logarithm of the IC50 (pIC50) of 7.54. This molecule registered an EC50 in assay [1] of 0.48 mg/kg.
Consider `CCc1cc(OCc2ccc(-c3ccccc3-c3nn[nH]n3)cc2)c2c(n1)CCCC2`, for which the negative logarithm of the IC50 (pIC50) in assay [3] was 8.30. This molecule registered an EC50 in assay [1] of 0.39 mg/kg.
`CCc1cc(OCc2ccc(-c3ccccc3-c3nn[nH]n3)cc2F)c2c(n1)CCCC2`: the pIC50 in assay [3] was 8.05. Besides, the EC50 in assay [1] was 0.22 mg/kg.
Molecule `CCc1cc(OCc2ccc(-c3ccccc3-c3nn[nH]n3)c(C(=O)O)c2)c2c(n1)CCCC2` had a pIC50 in assay [2] of 7.57. The molecule also registered an EC50 in assay [1] of 0.24 mg/kg.
In assay [3], `CCc1cc(OCc2ccc(-c3ccc(Cl)cc3-c3nnn[nH]3)cc2)c2c(n1)CCCC2` had a pIC50 of 7.03.
Still for that read-out and setting: with `CCc1cc(OCc2ccc(-c3cc(OC)ccc3-c3nn[nH]n3)cc2)c2c(n1)CCCC2` the figure was 7.17.
In assay [2], `CCc1cc(OCc2ccc(-c3ccccc3-c3nn[nH]n3)c(C(=O)OC)c2)c2c(n1)CCCC2` showed a pIC50 of 7.70. The molecule also displayed an EC50 in assay [1] of 0.11 mg/kg.

For orientation: pIC50 means the IC50 on a negative log10 scale, so that one unit is a factor of ten. Lower therefore signals a high IC50.
